pIC50: −log10 of the molar value.
Experiments:
[1] = inhibitors of NFkB activation in CF airway cells, SAR follow-up, KKLEB cells, panel, IL8 HTRF, NFkB-GFP (AID 651592); conditions: PAF/TNFa-induced NFkB-GFP / IL8 HTRF, CF-PAF assay;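 note: immortalized cystic fibrosis airway epithelial KKLEB cells with an NF-kB GFP reporter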
IL8 = test: as above; conditions: PAF/TNFa-induced NFkB-GFP / IL8 HTRF, mean of runs, mean IC50 across panel replicates
[2] = target: Interleukin-8 (Homo sapiens) (UniProt P10145); test: as above; conditions: PAF/TNFa-induced NFkB-GFP / IL8 HTRF
Interleukin-8 (Homo sapiens), sequence (P10145 whole entry, looked up): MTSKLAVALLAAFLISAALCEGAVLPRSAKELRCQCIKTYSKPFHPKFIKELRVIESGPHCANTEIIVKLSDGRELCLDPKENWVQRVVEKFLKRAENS

[3] = mean of runs, mean IC50 across panel replicates

| Compound | pIC50 [1, 3] | pIC50 ([1]; run 1) | pIC50 ([1]; run 2) | pIC50 ([1]; run 3) | pIC50 ([1]; run 4) | pIC50 ([1]; run 5) | pIC50 ([1]; run 6) | pIC50 (IL8; PAF-induced) | pIC50 (IL8; TNFa-induced) | pIC50 ([2]; IL8, PAF-induced, run 1) | pIC50 ([2]; IL8, PAF-induced, run 2) | pIC50 ([2]; IL8, PAF-induced, run 3) | pIC50 ([2]; IL8, PAF-induced, run 4) | pIC50 ([2]; IL8, PAF-induced, run 5) | pIC50 ([2]; IL8, PAF-induced, run 6) | pIC50 ([2]; IL8, TNFa-induced, run 1) | pIC50 ([2]; IL8, TNFa-induced, run 2) | pIC50 ([2]; IL8, TNFa-induced, run 3) | pIC50 ([2]; IL8, TNFa-induced, run 4) | pIC50 ([2]; IL8, TNFa-induced, run 5) | also measured |
| --- | --- | --- | --- | --- | --- | --- | --- | --- | --- | --- | --- | --- | --- | --- | --- | --- | --- | --- | --- | --- | --- |
| O=C(Nc1ccc(N2CCN(C(=O)c3ccccc3Cl)CC2)cc1)c1ccncc1 | 4.93 | 5.14 | 5.06 | 5.03 | 5.28 | 4.95 | 4.54 | 4.45 | 4.26 | < 4.18 | < 4.18 | < 4.18 | 5.94 | 5.44 | 5.00 | < 4.18 | < 4.18 | 5.57 | < 4.18 | < 4.18 | pIC50 ([2]; IL8, TNFa-induced, run 6): < 4.18 |
| O=C(Nc1ccc(N2CCN(C(=O)c3ccccc3F)CC2)cc1)c1ccncc1 | 4.50 | 4.81 | 4.79 | 4.75 | < 4.18 | < 4.18 | 5.06 | 4.25 | < 4.18 | < 4.18 | < 4.18 | 4.25 | < 4.18 | < 4.18 | < 4.18 | < 4.18 | < 4.18 | < 4.18 | < 4.18 | < 4.18 | pIC50 ([2]; IL8, TNFa-induced, run 6): < 4.18 |
| Cc1ccc(CNCc2cc3c(C(C)(C)C)nn(-c4ccccc4)c3[nH]c2=O)cc1 | 4.22 | < 4.18 | < 4.18 | < 4.18 | < 4.18 | < 4.18 | 4.52 | 4.84 | < 4.18 | 5.10 | 4.89 | 4.84 | 4.78 | 4.77 | 4.73 | < 4.18 | < 4.18 | < 4.18 | < 4.18 | < 4.18 | pIC50 ([2]; IL8, TNFa-induced, run 6): < 4.18 |
| CCOc1ccc(NCc2cc3c(C(C)(C)C)nn(-c4ccc(Cl)cc4)c3[nH]c2=O)cc1 | 4.75 | 5.02 | 5.00 | 4.99 | < 4.18 | 6.28 | 4.97 | 6.64 | < 4.18 | 6.67 | 6.61 | 6.56 | 6.83 | 6.63 | 6.61 | < 4.18 | < 4.18 | < 4.18 | < 4.18 | < 4.18 | pIC50 ([2]; IL8, TNFa-induced, run 6): < 4.18 |
| O=C(Nc1ccc(N2CCN(C(=O)c3ccccc3F)CC2)cc1)c1ccccc1 | 4.43 | 5.08 | 5.03 | 5.03 | < 4.18 | < 4.18 | < 4.18 | < 4.18 | 4.25 | < 4.18 | < 4.18 | < 4.18 | < 4.18 | < 4.18 | < 4.18 | < 4.18 | < 4.18 | 5.37 | < 4.18 | < 4.18 | pIC50 ([2]; IL8, TNFa-induced, run 6): < 4.18 |
| O=C(Nc1ccc(N2CCN(C(=O)c3ccccc3Cl)CC2)cc1)c1cc(Br)cc(Br)c1 | < 4.18 | < 4.18 | < 4.18 | < 4.18 | < 4.18 | < 4.18 | < 4.18 | < 4.18 | < 4.18 | < 4.18 | < 4.18 | < 4.18 | < 4.18 | < 4.18 | < 4.18 | < 4.18 | < 4.18 | < 4.18 | < 4.18 | < 4.18 | pIC50 ([2]; IL8, TNFa-induced, run 6): < 4.18 |
| CCOc1ccc(NCc2cc3c(-c4ccc(F)cc4)nn(-c4ccccc4)c3[nH]c2=O)cc1 | 5.04 | 4.85 | 4.80 | 4.74 | 5.74 | 5.63 | 5.61 | 6.28 | 4.24 | 6.36 | 6.01 | 5.98 | 6.74 | 6.61 | 6.61 | < 4.18 | < 4.18 | < 4.18 | < 4.18 | < 4.18 | pIC50 ([2]; IL8, TNFa-induced, run 6): 4.83 |
| O=C(Nc1ccc(N2CCN(C(=O)c3ccccc3)CC2)cc1)c1cccc(Br)c1 | 4.69 | 4.83 | 4.78 | 4.72 | 4.68 | 4.64 | 4.54 | 4.32 | 4.32 | < 4.18 | 5.35 | 4.75 | < 4.18 | < 4.18 | < 4.18 | < 4.18 | < 4.18 | 4.83 | < 4.18 | < 4.18 | pIC50 ([2]; IL8, TNFa-induced, run 6): 5.08 |
| O=C(Nc1ccc(N2CCN(C(=O)c3ccc(F)cc3)CC2)cc1)c1ccccc1 | < 4.18 | < 4.18 | < 4.18 | < 4.18 | < 4.18 | < 4.18 | < 4.18 | < 4.18 | < 4.18 | < 4.18 | < 4.18 | < 4.18 | < 4.18 | < 4.18 | < 4.18 | < 4.18 | < 4.18 | < 4.18 | < 4.18 | < 4.18 | pIC50 ([2]; IL8, TNFa-induced, run 6): < 4.18 |
| O=C(Nc1ccc(N2CCN(C(=O)c3ccc(F)cc3)CC2)cc1)c1cc(Br)cc(Br)c1 | < 4.18 | < 4.18 | < 4.18 | < 4.18 | < 4.18 | < 4.18 | < 4.18 | < 4.18 | < 4.18 | < 4.18 | < 4.18 | < 4.18 | < 4.18 | < 4.18 | < 4.18 | < 4.18 | < 4.18 | < 4.18 | < 4.18 | < 4.18 | pIC50 ([2]; IL8, TNFa-induced, run 6): < 4.18 |
| CCOc1ccc(NCc2cc3c(-c4ccc(OC)c(OC)c4)nn(-c4ccccc4)c3[nH]c2=O)cc1 | 4.60 | 4.73 | 4.35 | 4.32 | 4.98 | 4.89 | 4.79 | 5.79 | < 4.18 | 5.90 | 5.77 | 5.73 | 5.88 | 5.78 | 5.72 | < 4.18 | < 4.18 | < 4.18 | < 4.18 | < 4.18 | pIC50 ([2]; IL8, TNFa-induced, run 6): < 4.18 |
| O=C(Nc1ccc(N2CCN(C(=O)c3ccccc3)CC2)cc1)c1cc(Br)cc(Br)c1 | < 4.18 | < 4.18 | < 4.18 | < 4.18 | < 4.18 | < 4.18 | < 4.18 | < 4.18 | < 4.18 | < 4.18 | < 4.18 | < 4.18 | < 4.18 | < 4.18 | < 4.18 | < 4.18 | < 4.18 | < 4.18 | < 4.18 | < 4.18 | pIC50 ([2]; IL8, TNFa-induced, run 6): < 4.18 |
| O=C(Nc1ccc(N2CCN(C(=O)c3ccccc3)CC2)cc1)c1cncc(Br)c1 | 5.43 | 5.57 | 5.50 | 5.46 | 5.53 | 5.35 | 5.24 | 5.04 | 4.22 | 5.36 | 5.12 | 5.01 | 6.05 | 5.13 | 4.61 | < 4.18 | < 4.18 | 4.45 | < 4.18 | < 4.18 | pIC50 ([2]; IL8, TNFa-induced, run 6): < 4.18 |
| CCOc1ccc(NCc2cc3c(C)nn(-c4ccccc4)c3[nH]c2=O)cc1 | 4.90 | 4.89 | 4.80 | 4.79 | 5.04 | 4.98 | 4.95 | 4.98 | < 4.18 | 4.99 | 4.86 | 4.85 | 5.10 | 5.08 | 5.07 | < 4.18 | < 4.18 | < 4.18 | < 4.18 | < 4.18 | pIC50 ([2]; IL8, TNFa-induced, run 6): < 4.18 |

Reference: PubChem BioAssay AID651592 (Sanford-Burnham Center for Chemical Genomics, 2012)
